# Data as given in PubChem BioAssay AID2060895 (Molecular Pharmacology Branch, DTP, NCI, 2025).
# System: PDC 899932-113-R3-J6 complex spheroid viability
# Assay: Anticancer human tumor 899932-113-R3-J6-PDC patient-derived melanoma cell line growth inhibition [RAS]
# Conditions: for IC50: curve of first compound; for viability, T/C: stronger effect = lower value
# In short: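 Tumour cells grown as complex spheroids with HUVEC endothelial cells and mesenchymal stem cells, treated with RAS pathway inhibitor combinations. Each agent spans half-log steps from near clinical Cmax, or 10 microM where Cmax is unknown.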
# [1] = second compound 0.00316 µM, first compound 0.0316 µM
# [2] = second compound 0.00316 µM, first compound 0.1 µM
# [3] = second compound 0.01 µM, first compound 0.0316 µM
# [4] = second compound 0.01 µM, first compound 0.1 µM
# [5] = second compound 0.0316 µM, first compound 0.0316 µM
# [6] = second compound 0.0316 µM, first compound 0.1 µM
# [7] = second compound 0.1 µM, first compound 0.0316 µM
# [8] = second compound 0.1 µM, first compound 0.1 µM
# [9] = second compound 0.316 µM, first compound 0.0316 µM
# [10] = second compound 0.316 µM, first compound 0.1 µM
# [11] = second compound 1 µM, first compound 0.0316 µM
# [12] = second compound 1 µM, first compound 0.1 µM
# 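Throughout, for viability, T/C: spheroids exposed to agents for seven days before readout; 100% = DMSO vehicle control wells.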
smiles,measurement,setting,value
CC(C)NCC(C(=O)N1CCN(c2ncnc3c2C(C)CC3O)CC1)c1ccc(Cl)cc1 (centres undefined) + C=CC(=O)N1CCN(c2nc(OCC3CCCN3C)nc3c(F)c(-c4nc(N)cc(C)c4C(F)(F)F)c(Cl)cc23)C(C)C1,IC50,second compound 0.00316 µM,4.89 µM
same,IC50,second compound 0.01 µM,5.2 µM
same,IC50,second compound 0.0316 µM,5.3 µM
same,IC50,second compound 0.1 µM,5.83 µM
same,IC50,second compound 0.316 µM,5.98 µM
same,IC50,second compound 1 µM,6.01 µM
same,"viability, T/C",[1],106%
same,"viability, T/C",[2],97.3%
same,"viability, T/C","second compound 0.00316 µM, first compound 0.316 µM",99.6%
same,"viability, T/C","second compound 0.00316 µM, first compound 1 µM",84.4%
same,"viability, T/C","second compound 0.00316 µM, first compound 3.16 µM",60.3%
same,"viability, T/C","second compound 0.00316 µM, first compound 10 µM",33%
same,"viability, T/C",[3],110%
same,"viability, T/C",[4],105%
same,"viability, T/C","second compound 0.01 µM, first compound 0.316 µM",102%
same,"viability, T/C","second compound 0.01 µM, first compound 1 µM",81.3%
same,"viability, T/C","second compound 0.01 µM, first compound 3.16 µM",60.9%
same,"viability, T/C","second compound 0.01 µM, first compound 10 µM",36.8%
same,"viability, T/C",[5],110%
same,"viability, T/C",[6],101%
same,"viability, T/C","second compound 0.0316 µM, first compound 0.316 µM",104%
same,"viability, T/C","second compound 0.0316 µM, first compound 1 µM",82.7%
same,"viability, T/C","second compound 0.0316 µM, first compound 3.16 µM",65.1%
same,"viability, T/C","second compound 0.0316 µM, first compound 10 µM",32.6%
same,"viability, T/C",[7],103%
same,"viability, T/C",[8],110%
same,"viability, T/C","second compound 0.1 µM, first compound 0.316 µM",99%
same,"viability, T/C","second compound 0.1 µM, first compound 1 µM",89%
same,"viability, T/C","second compound 0.1 µM, first compound 3.16 µM",58.9%
same,"viability, T/C","second compound 0.1 µM, first compound 10 µM",41.9%
same,"viability, T/C",[9],106%
same,"viability, T/C",[10],105%
same,"viability, T/C","second compound 0.316 µM, first compound 0.316 µM",96.3%
same,"viability, T/C","second compound 0.316 µM, first compound 1 µM",83.7%
same,"viability, T/C","second compound 0.316 µM, first compound 3.16 µM",72.8%
same,"viability, T/C","second compound 0.316 µM, first compound 10 µM",33.6%
same,"viability, T/C",[11],88.7%
same,"viability, T/C",[12],104%
same,"viability, T/C","second compound 1 µM, first compound 0.316 µM",105%
same,"viability, T/C","second compound 1 µM, first compound 1 µM",89.5%
same,"viability, T/C","second compound 1 µM, first compound 3.16 µM",73.7%
same,"viability, T/C","second compound 1 µM, first compound 10 µM",31.7%
CC(C)n1nc(-c2ccc3oc(N)nc3c2)c2c(N)ncnc21 + C=CC(=O)N1CCN(c2nc(OCC3CCCN3C)nc3c(F)c(-c4nc(N)cc(C)c4C(F)(F)F)c(Cl)cc23)C(C)C1,IC50,second compound 0.00316 µM,0.0907 µM
same,IC50,second compound 0.01 µM,> 0.1 µM
same,IC50,second compound 0.0316 µM,> 0.1 µM
same,IC50,second compound 0.1 µM,> 0.1 µM
same,IC50,second compound 0.316 µM,> 0.1 µM
same,IC50,second compound 1 µM,> 0.1 µM
same,"viability, T/C","second compound 0.00316 µM, first compound 0.000316 µM",109%
same,"viability, T/C","second compound 0.00316 µM, first compound 0.001 µM",105%
same,"viability, T/C","second compound 0.00316 µM, first compound 0.00316 µM",114%
same,"viability, T/C","second compound 0.00316 µM, first compound 0.01 µM",105%
same,"viability, T/C",[1],79.6%
same,"viability, T/C",[2],47.3%
same,"viability, T/C","second compound 0.01 µM, first compound 0.000316 µM",113%
same,"viability, T/C","second compound 0.01 µM, first compound 0.001 µM",116%
same,"viability, T/C","second compound 0.01 µM, first compound 0.00316 µM",112%
same,"viability, T/C","second compound 0.01 µM, first compound 0.01 µM",115%
same,"viability, T/C",[3],74.5%
same,"viability, T/C",[4],52.6%
same,"viability, T/C","second compound 0.0316 µM, first compound 0.000316 µM",113%
same,"viability, T/C","second compound 0.0316 µM, first compound 0.001 µM",111%
same,"viability, T/C","second compound 0.0316 µM, first compound 0.00316 µM",102%
same,"viability, T/C","second compound 0.0316 µM, first compound 0.01 µM",97.7%
same,"viability, T/C",[5],75.7%
same,"viability, T/C",[6],54.1%
same,"viability, T/C","second compound 0.1 µM, first compound 0.000316 µM",110%
same,"viability, T/C","second compound 0.1 µM, first compound 0.001 µM",121%
same,"viability, T/C","second compound 0.1 µM, first compound 0.00316 µM",106%
same,"viability, T/C","second compound 0.1 µM, first compound 0.01 µM",92.2%
same,"viability, T/C",[7],83.5%
same,"viability, T/C",[8],52.3%
same,"viability, T/C","second compound 0.316 µM, first compound 0.000316 µM",98.9%
same,"viability, T/C","second compound 0.316 µM, first compound 0.001 µM",104%
same,"viability, T/C","second compound 0.316 µM, first compound 0.00316 µM",111%
same,"viability, T/C","second compound 0.316 µM, first compound 0.01 µM",104%
same,"viability, T/C",[9],85.5%
same,"viability, T/C",[10],50%
same,"viability, T/C","second compound 1 µM, first compound 0.000316 µM",108%
same,"viability, T/C","second compound 1 µM, first compound 0.001 µM",108%
same,"viability, T/C","second compound 1 µM, first compound 0.00316 µM",109%
same,"viability, T/C","second compound 1 µM, first compound 0.01 µM",100%
same,"viability, T/C",[11],78.9%
same,"viability, T/C",[12],54.8%
